Assay results published in US7576064B2, “Pyrazole derivative, drug composition containing the same and production intermediate therefor” (Kissei Pharmaceutical Co., Ltd., priority 2003, dated 2009).
pIC50: −log10 of the molar value.

Columns and labels:
human SMINT [1] = target: T1, human SMINT (Homo sapiens, UniProt Q2M3M2); test: Confirmatory test for substrate specificity of human SMINT (inhibition of α-MG uptake by natural sugars); assay type: cell-based; details: natural sugars added to Uptake Buffer with 1 mM α-MG; COS-7 cells transiently expressing human SMINT
T1 construct: expressed in transfected cells; host or cells: COS-7 cells (RIKEN CELL BANK RCB0539), transient lipofection
T1 sequence (Q2M3M2 1-681): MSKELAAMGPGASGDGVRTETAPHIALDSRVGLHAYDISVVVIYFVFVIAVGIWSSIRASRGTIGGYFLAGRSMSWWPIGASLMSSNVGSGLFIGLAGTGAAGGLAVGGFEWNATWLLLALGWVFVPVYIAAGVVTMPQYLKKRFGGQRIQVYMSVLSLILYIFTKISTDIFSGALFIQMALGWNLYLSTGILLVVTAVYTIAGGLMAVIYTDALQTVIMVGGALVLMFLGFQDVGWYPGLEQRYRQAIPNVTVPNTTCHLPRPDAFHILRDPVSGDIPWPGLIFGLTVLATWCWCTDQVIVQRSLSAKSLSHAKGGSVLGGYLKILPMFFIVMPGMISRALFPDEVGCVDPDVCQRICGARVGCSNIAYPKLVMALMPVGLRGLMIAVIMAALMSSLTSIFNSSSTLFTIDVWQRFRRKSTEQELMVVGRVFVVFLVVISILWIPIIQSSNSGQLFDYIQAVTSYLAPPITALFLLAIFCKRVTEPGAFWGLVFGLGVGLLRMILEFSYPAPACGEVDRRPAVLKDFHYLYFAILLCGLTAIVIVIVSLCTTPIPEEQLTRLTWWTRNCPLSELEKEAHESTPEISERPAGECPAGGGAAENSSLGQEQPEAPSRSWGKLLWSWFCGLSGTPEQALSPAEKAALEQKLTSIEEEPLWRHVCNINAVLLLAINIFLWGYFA
Description: FIG. 2 is a graph showing substrate specificity of human SMINT. The vertical axis in dicates methyl-α-D-glucopyranoside (α-MG) uptake activity (%), and the horizontal axis indicates concentration (mol/L).
1) Preparation of Cells Transiently Expressing Human SMINT
Human SMINT-carrying expression plasmid SMINT/pME18S-FL (denotation of bacteria: Escherichia coli/SMINT2010324), which was deposited with Patent Microorganisms Depositary at the National Institute of Technology and Evaluation under an accession number: FERMP-18756 on Mar. 12, 2002, was transfected to COS-7 cells (RIKEN CELL BANK RCB0539) by lipofection method. LIPOFECTAMINE PLUS reagent (Invitrogen) was used as the lipofection reagent. A day before the lipofection, COS-7 cells were suspended in D-MEM medium (Invitrogen) at 6×10^5 cells per 1 mL, and 50 μL of the suspended cells was dispensed into each well of 96-well plate. The lipofection was performed by the following methods. For each well, 0.1 μg of the plasmid was diluted with 10 μL of D-MEM, added 0.5 μL of PLUS reagent, mixed gently, and kept stand for 15 minutes to prepare Plasmid Dilute Solution. For each well, 0.5 μL of LIPOFECTAMINE reagent was diluted with 10 μL of D-MEM to prepare LIPOFECTAMINE Dilute Solution. […]
To Uptake Buffer consisting of 140 mM sodium chloride, 2 mM potassium chloride, 1 mM calcium chloride, 1 mM magnesium chloride, 10 mM 2-[2-(2-hydroxyethyl)-1-piperazinyl]-ethanesulfonic acid, and 5 mM tris(hydroxymethyl)aminomethane (pH 7.4), was added methyl-α-D-glucopyranoside (α-MG) composed of its non-radiolabeled form (Sigma) and ^14C-labeled form (Amersham Biosciences) at 1 mM as the final concentration. […] To the cell lysates were added 150 μL per well of MicroScint 40 (Packard), mixed well, and the radio activity was measured in a micro scintillation counter TOPCOUNT (Packard). α-MG uptake by the cells treated with each concentration of test compounds was calculated as relative activity to control group, which is set as 100% uptake after deducting the basal uptake. […]

human SMINT [2] = target: T1, human SMINT; test: Confirmatory test for inhibitory activity on human SMINT (methyl-α-D-glucopyranoside uptake in transiently expressing COS-7 cells); assay type: cell-based; details: COS-7 cells transiently expressing human SMINT; 1 mM α-MG; 1 hour, 37° C.; read-out: IC50 value (concentration inhibiting α-MG uptake by 50%)
Description: Human SMINT-carrying expression plasmid SMINT/pME18S-FL (denotation of bacteria: Escherichia coli/SMINT2010324), which was deposited with Patent Microorganisms Depositary at the National Institute of Technology and Evaluation under an accession number: FERMP-18756 on Mar. 12, 2002, was transfected to COS-7 cells (RIKEN CELL BANK RCB0539) by lipofection method. LIPOFECTAMINE PLUS reagent (Invitrogen) was used as the lipofection reagent. A day before the lipofection, COS-7 cells were suspended in D-MEM medium (Invitrogen) at 6×10^5 cells per 1 mL, and 50 μL of the suspended cells was dispensed into each well of 96-well plate. The lipofection was performed by the following methods. For each well, 0.1 μg of the plasmid was diluted with 10 μL of D-MEM, added 0.5 μL of PLUS reagent, mixed gently, and kept stand for 15 minutes to prepare Plasmid Dilute Solution. For each well, 0.5 μL of LIPOFECTAMINE reagent was diluted with 10 μL of D-MEM to prepare LIPOFECTAMINE Dilute Solution. The Plasmid Dilute Solution was mixed with an equal volume of the LIPOFECTAMINE Dilute Solution, kept stand for 15 minutes. After that, 20 μL of the mixture was added to each well of cell culture medium, and the cells were cultured for 5 hours at 37° C. under 5% CO2. Then 100 μL of D-MEM containing 16.7% fetal bovine serum (Sanko Jun-yaku) was added to each well. […]

| SMILES | recognition as substrate by SMINT (FIG. 2) (human SMINT [1]) | pIC50 (human SMINT [2]) |
| --- | --- | --- |
| OC[C@H]1OC[C@H](O)[C@@H](O)[C@@H]1O [1,5-anhydroglucitol] | recognizes | – |
| COc1ccc(Cc2c(O[C@@H]3O[C@H](CO)[C@@H](O)[C@H](O)[C@H]3O)nn(C(C)C)c2Oc2ccccc2)cc1 [Example 1, 1-Isopropyl-4-(4-methoxybenzyl)-5-phenoxy-3-(β-D-glucopyranosyloxy)-1H-pyrazole] | – | 6.15 |
| COc1ccc(Cc2c(O[C@@H]3O[C@H](CO)[C@@H](O)[C@H](O)[C@H]3O)nn(C(C)C)c2-n2cccn2)c(OC)c1 [Example 4, 1-Isopropyl-4-(2,4-dimethoxyphenylmethyl)-5-(1H-pyrazol-1-yl)-3-(β-D-glucopyranosyloxy)-1H-pyrazole] | – | 6.05 |

More lines, now with the values ahead:

| recognition as substrate by SMINT (FIG. 2) (human SMINT [1]) | pIC50 (human SMINT [2]) | SMILES |
| --- | --- | --- |
| recognizes | – | O=C(CO)[C@@H](O)[C@H](O)[C@H](O)CO [fructose] |
| not | – | O=C[C@H](O)[C@@H](O)[C@@H](O)[C@H](O)CO [galactose] |
